Assay results as given in ChEMBL document CHEMBL1201862, “PubChem BioAssay data set” (2004).
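The compound was tested at five concentrations on cells cultured in 96-well plates, with a 48-hour exposure period. Abbreviation: GI50, concentration required for 50% inhibition of growth.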 Active and inactive are the calls of the source. Cut-off read from the data, not from the text of the source: active = GI50 up to about 1.1 µM and inactive = higher.

Key:
Assay in all cases: NCI anticancer screen, dose series, 48 h
786-0 = system: 786-0
A498 = system: A498
A549 = system: A549
ACHN = system: ACHN
BT-549 = system: BT-549
COLO 205 = system: COLO 205
DU-145 = system: DU-145
EKVX = system: EKVX
HCC 2998 = system: HCC 2998
HCT-116 = system: HCT-116
HCT-15 = system: HCT-15
HOP-62 = system: HOP-62
HT-29 = system: HT-29
Hs-578T = system: Hs-578T
IGROV-1 = system: IGROV-1
KM12 = system: KM12
M14 = system: M14
MCF7 = system: MCF7
MDA-MB-231 = system: MDA-MB-231
MDA-MB-435 = system: MDA-MB-435
MDA-N = system: MDA-N
MOLT-4 = system: MOLT-4
NCI-H226 = system: NCI-H226
NCI-H23 = system: NCI-H23
NCI-H460 = system: NCI-H460
NCI/ADR-RES = system: NCI/ADR-RES
OVCAR-3 = system: OVCAR-3
OVCAR-4 = system: OVCAR-4
OVCAR-5 = system: OVCAR-5
OVCAR-8 = system: OVCAR-8
RPMI-8226 = system: RPMI-8226
RXF 393 = system: RXF 393
SF-268 = system: SF-268
SF-295 = system: SF-295
SF-539 = system: SF-539
SK-MEL-28 = system: SK-MEL-28
SK-MEL-2 = system: SK-MEL-2
SK-MEL-5 = system: SK-MEL-5
SK-OV-3 = system: SK-OV-3
SN12C = system: SN12C
SNB-19 = system: SNB-19
SNB-75 = system: SNB-75
SW-620 = system: SW-620
T47D = system: T47D
TK-10 = system: TK-10
U-251 = system: U-251
UACC-257 = system: UACC-257
UACC-62 = system: UACC-62
UO-31 = system: UO-31
CAKI-1 = system: CAKI-1
HL-60 = system: HL-60
HOP-92 = system: HOP-92
K562 = system: K562
LOX IMVI = system: LOX IMVI
Malme-3M = system: Malme-3M
NCI-H522 = system: NCI-H522
SR = system: SR
CCRF-CEM = system: CCRF-CEM
PC-3 = system: PC-3

Cc1ccc(S(=O)(=O)N2CCCSCCSCCCN(S(=O)(=O)c3ccc(C)cc3)CC2)cc1
GI50 (786-0): > 100 µM (inactive) | GI50 (A498): > 100 µM (inactive) | GI50 (A549): > 100 µM (inactive) | GI50 (ACHN): > 100 µM (inactive) | GI50 (BT-549): > 100 µM (inactive) | GI50 (COLO 205): > 100 µM (inactive) | GI50 (DU-145): > 100 µM (inactive) | GI50 (EKVX): > 100 µM (inactive) | GI50 (HCC 2998): > 100 µM (inactive) | GI50 (HCT-116): > 100 µM (inactive) | GI50 (HCT-15): > 100 µM | GI50 (HOP-62): > 100 µM (inactive) | GI50 (HT-29): > 100 µM (inactive) | GI50 (Hs-578T): > 100 µM (inactive) | GI50 (IGROV-1): > 100 µM (inactive) | GI50 (KM12): > 100 µM (inactive) | GI50 (M14): > 100 µM (inactive) | GI50 (MCF7): > 100 µM (inactive) | GI50 (MDA-MB-231): > 100 µM (inactive) | GI50 (MDA-MB-435): > 100 µM (inactive) | GI50 (MDA-N): > 100 µM (inactive) | GI50 (MOLT-4): > 100 µM (inactive) | GI50 (NCI-H226): > 100 µM (inactive) | GI50 (NCI-H23): > 100 µM (inactive) | GI50 (NCI-H460): > 100 µM (inactive) | GI50 (NCI/ADR-RES): > 100 µM (inactive) | GI50 (OVCAR-3): > 100 µM (inactive) | GI50 (OVCAR-4): > 100 µM (inactive) | GI50 (OVCAR-5): > 100 µM (inactive) | GI50 (OVCAR-8): > 100 µM (inactive) | GI50 (RPMI-8226): > 100 µM (inactive) | GI50 (RXF 393): > 100 µM (inactive) | GI50 (SF-268): > 100 µM (inactive) | GI50 (SF-295): > 100 µM (inactive) | GI50 (SF-539): > 100 µM (inactive) | GI50 (SK-MEL-28): > 100 µM (inactive) | GI50 (SK-MEL-2): > 100 µM (inactive) | GI50 (SK-MEL-5): > 100 µM (inactive) | GI50 (SK-OV-3): > 100 µM (inactive) | GI50 (SN12C): > 100 µM (inactive) | GI50 (SNB-19): > 100 µM (inactive) | GI50 (SNB-75): > 100 µM (inactive) | GI50 (SW-620): > 100 µM (inactive) | GI50 (T47D): 57.8 µM (inactive) | GI50 (TK-10): > 100 µM (inactive) | GI50 (U-251): > 100 µM (inactive) | GI50 (UACC-257): > 100 µM (inactive) | GI50 (UACC-62): > 100 µM (inactive) | GI50 (UO-31): > 100 µM (inactive)

NS(=O)(=O)c1nnc(NC(=O)c2cccc([N+](=O)[O-])c2)s1
GI50 (786-0): > 100 µM (inactive) | GI50 (A549): > 100 µM (inactive) | GI50 (ACHN): > 100 µM (inactive) | GI50 (BT-549): > 100 µM (inactive) | GI50 (CAKI-1): > 100 µM (inactive) | GI50 (COLO 205): > 100 µM (inactive) | GI50 (DU-145): > 100 µM (inactive) | GI50 (EKVX): > 100 µM (inactive) | GI50 (HCC 2998): > 100 µM (inactive) | GI50 (HCT-116): > 100 µM (inactive) | GI50 (HCT-15): > 100 µM | GI50 (HL-60): > 100 µM (inactive) | GI50 (HOP-62): > 100 µM (inactive) | GI50 (HOP-92): 44.9 µM (inactive) | GI50 (Hs-578T): > 100 µM (inactive) | GI50 (K562): > 100 µM (inactive) | GI50 (KM12): > 100 µM (inactive) | GI50 (LOX IMVI): > 100 µM (inactive) | GI50 (M14): > 100 µM (inactive) | GI50 (MCF7): > 100 µM (inactive) | GI50 (MDA-MB-231): > 100 µM (inactive) | GI50 (MDA-MB-435): > 100 µM (inactive) | GI50 (MDA-N): > 100 µM (inactive) | GI50 (MOLT-4): > 100 µM (inactive) | GI50 (Malme-3M): > 100 µM (inactive) | GI50 (NCI-H226): > 100 µM (inactive) | GI50 (NCI-H23): > 100 µM (inactive) | GI50 (NCI-H460): > 100 µM (inactive) | GI50 (NCI-H522): > 100 µM (inactive) | GI50 (NCI/ADR-RES): > 100 µM (inactive) | GI50 (OVCAR-3): > 100 µM (inactive) | GI50 (OVCAR-4): > 100 µM (inactive) | GI50 (OVCAR-5): > 100 µM (inactive) | GI50 (OVCAR-8): > 100 µM (inactive) | GI50 (RPMI-8226): > 100 µM (inactive) | GI50 (RXF 393): > 100 µM (inactive) | GI50 (SF-268): > 100 µM (inactive) | GI50 (SF-295): > 100 µM (inactive) | GI50 (SF-539): > 100 µM (inactive) | GI50 (SK-MEL-28): > 100 µM (inactive) | GI50 (SK-MEL-2): > 100 µM (inactive) | GI50 (SK-MEL-5): > 100 µM (inactive) | GI50 (SK-OV-3): > 100 µM (inactive) | GI50 (SN12C): > 100 µM (inactive) | GI50 (SNB-19): > 100 µM (inactive) | GI50 (SR): > 100 µM (inactive) | GI50 (SW-620): > 100 µM (inactive) | GI50 (T47D): > 100 µM (inactive) | GI50 (TK-10): > 100 µM (inactive) | GI50 (U-251): > 100 µM (inactive) | GI50 (UACC-257): > 100 µM (inactive) | GI50 (UACC-62): > 100 µM (inactive) | GI50 (UO-31): > 100 µM (inactive)

COc1ccc(OC)c(NC(=O)c2c(Cl)c(Cl)c(Cl)c(Cl)c2-c2nc3ccccc3[nH]2)c1
GI50 (786-0): > 100 µM (inactive) | GI50 (A498): > 100 µM (inactive) | GI50 (A549): > 100 µM (inactive) | GI50 (ACHN): > 100 µM (inactive) | GI50 (BT-549): > 100 µM (inactive) | GI50 (CAKI-1): > 100 µM (inactive) | GI50 (CCRF-CEM): 49.2 µM (inactive) | GI50 (COLO 205): > 100 µM (inactive) | GI50 (DU-145): > 100 µM (inactive) | GI50 (EKVX): > 100 µM (inactive) | GI50 (HCC 2998): > 100 µM (inactive) | GI50 (HCT-116): > 100 µM (inactive) | GI50 (HCT-15): > 100 µM | GI50 (HL-60): 53.7 µM (inactive) | GI50 (HOP-62): > 100 µM (inactive) | GI50 (HOP-92): > 100 µM (inactive) | GI50 (HT-29): > 100 µM (inactive) | GI50 (Hs-578T): > 100 µM (inactive) | GI50 (IGROV-1): 89.1 µM (inactive) | GI50 (K562): > 100 µM (inactive) | GI50 (KM12): > 100 µM (inactive) | GI50 (LOX IMVI): > 100 µM (inactive) | GI50 (M14): > 100 µM (inactive) | GI50 (MCF7): 76.7 µM (inactive) | GI50 (MDA-MB-435): > 100 µM (inactive) | GI50 (MDA-N): > 100 µM (inactive) | GI50 (MOLT-4): 56.2 µM (inactive) | GI50 (Malme-3M): > 100 µM (inactive) | GI50 (NCI-H226): > 100 µM (inactive) | GI50 (NCI-H23): > 100 µM (inactive) | GI50 (NCI-H460): > 100 µM (inactive) | GI50 (NCI-H522): > 100 µM (inactive) | GI50 (NCI/ADR-RES): > 100 µM (inactive) | GI50 (OVCAR-3): > 100 µM (inactive) | GI50 (OVCAR-4): > 100 µM (inactive) | GI50 (OVCAR-5): > 100 µM (inactive) | GI50 (OVCAR-8): 56.9 µM (inactive) | GI50 (PC-3): > 100 µM (inactive) | GI50 (RPMI-8226): 45.4 µM (inactive) | GI50 (RXF 393): > 100 µM (inactive) | GI50 (SF-268): > 100 µM (inactive) | GI50 (SF-295): > 100 µM (inactive) | GI50 (SF-539): > 100 µM (inactive) | GI50 (SK-MEL-28): > 100 µM (inactive) | GI50 (SK-MEL-5): > 100 µM (inactive) | GI50 (SK-OV-3): > 100 µM (inactive) | GI50 (SN12C): 80.4 µM (inactive) | GI50 (SNB-19): > 100 µM (inactive) | GI50 (SNB-75): > 100 µM (inactive) | GI50 (SR): 52.6 µM (inactive) | GI50 (SW-620): > 100 µM (inactive) | GI50 (T47D): > 100 µM (inactive) | GI50 (UACC-257): > 100 µM (inactive) | GI50 (UACC-62): > 100 µM (inactive) | GI50 (UO-31): > 100 µM (inactive)
